The text below walks through data of ChEMBL document CHEMBL5726472, “Oxazolidin-2-one-pyrimidine derivatives and the use thereof as phosphatidylinositol-3-kinase inhibitors” (2019).

Experiment [1] in a line: (§1) AlphaScreen (Amplified Luminescent Proximity Homogeneous Assay, ALPHA, Perkin Elmer) is a non-radioactive bead-based proximity assay technology to study biomolecular interactions in a homogenous microtiter plate format. The brand name SureFire denotes AlphaScreen assays that are adapted to quantify the phosphorylation of endogenous cellular proteins in cell lysates, by using matched antibody pairs, which consist of an anti-phospho-kinase and an anti-kinase antibody. The assay allows characterization of kinase signaling in cells as well as measurement of kinase inhibitor effects. The AlphaScreen technology provides several advantages over standard assay techniques such as ELISA, as it avoids time-consuming washing procedures and reduces plate handling. Furthermore, it is miniaturizable at least to a 384-well format and provides sensitivity down to the femtomolar range, dependent on the affinity of the antibodies included in the individual AlphaScreen SureFire assay kit. High sensitivity is reached by an intrinsic amplification mechanism, which involves production of singlet oxygen molecules. SureFire assay kits are commercially available for specific targets and include pairs of validated antibodies (PerkinElmer). This report describes common procedures applied for AlphaScreen SureFire assays and respective semi-automated steps for routine kinase inhibitor profiling in cell-based assays.The Rat-1 cell lines stably overexpressing activated PI3K class I isoforms Rat-1 pBABEpuro Myr-HA-hp110 delta (Rat-1_PI3Kdelta) and Rat-1 pBABEpuro Myr-HA-hp110alpha (Rat-1_PI3Kalpha) and Rat-1 pBABEpuro Myr-HA-hp110 beta (Rat-1_PI3beta) were prepared as described (Maira S M, Stauffer F, Brueggen J, Furet P, Schnell C, Fritsch C, Brachmann S, Chène P, de Pover A, Schoemaker K, Fabbro D, Gabriel D, Simonen M, Murphy L, Finan P, Sellers W, Garcia-Echeverria C (2008), Mol Cancer Ther. 7:1851-63 and Maira S M, Pecchi S, Brueggen J, Huh K, Schnell C, Fritsch C, Nagel T, Wiesmann M, Brachmann S, Dorsch M, Chène P, Schoemaker K, De Pover A, Menezes D, Fabbro D, Sellers W, Garcia-Echeverria C, Voliva CF (2011), Mol. Cancer Ther., accepted). All cell lines were cultivated in complete growth medium (DMEM high glucose, 10% (v/v) fetal bovine serum, 1% (v/v) MEM NEAA, 10 mM HEPES, 2 mM L-glutamine, puromycin (10 μg/mL for Rat-1_PI3Kdelta and Rat-1_PI3Kalpha, 4 ug/mL for Rat-1_PI3beta), 1% (v/v) Pen/Strep) to 90% confluency at 37° C./5% CO2/90% humidity in a humidified CO2 incubator and were split twice a week.The following materials were used for p-AKT(5473) detection in Rat-1 cell lysates: Dulbecco's modified Eagle's medium (DMEM) high glucose (Gibco Invitrogen, Basel, Switzerland, Cat. No. 41965), Heat Inactivated Fetal Bovine Serum, Qualified (HI FBS; Gibco Invitrogen, Basel, Switzerland, Lot. No. 16140), MEM non essential amino acids (NEAA; Gibco Invitrogen, Basel, Switzerland, Cat. No. 11140), HEPES (Gibco Invitrogen, Basel, Switzerland, Cat. No. 15630), Penicillin/Streptomycin (Pen/Strep, 100x; Gibco Invitrogen, Basel, Switzerland, Cat. No. 15140-122), L-Glutamine (Gibco Invitrogen, Basel, Switzerland, Cat. No. 25030), Puromycin (Sigma Aldrich, Buchs, Switzerland, Cat. No. P9620), DMSO (MERCK, Dietikon, Switzerland, Cat. No. 8.02912.2500), H2O, MilliQ-H2O unless otherwise stated (MILLIPORE QGARDOOR1, Millipore, Zug, Switzerland), Bovine serum albumine (BSA; Sigma Aldrich, Buchs, Switzerland Cat. No. A8412), SureFire p-Akt ½ (Ser473) Assay Kit (PerkinElmer, Schwerzenbach, Switzerland, Cat. No. TGRAS50K).The p-Akt(5473) SureFire assay measures the phosphorylation of endogenous cellular Akt ½ at Ser473 in cell lysates. Using Rat-1 cells stably expressing myr-HA-tagged versions of the human PI3Kdelta, PI3Kalpha, or PI3Kbeta p110 catalytic subunit isoforms, the assay was developed as a two-plate protocol in a 384-well format. For compound testing, the cells were seeded at a density of 4000 (Rat-1_PI3Kdelta), 7500 (Rat-1_PI3Kalpha). In general terms: In Alpha technology, singlet oxygen from a donor bead excites a nearby acceptor bead.

A short description of experiment [2]: as §1, with “No. 16140), MEM non essential amino acids (NEAA; Gibco Invitrogen, Basel, Switzerland, Cat. No. 11140), HEPES (Gibco Invitrogen, Basel, Switzerland, Cat. No. 15630), Penicillin/Streptomycin (Pen/Strep, 100x; Gibco Invitrogen, Basel, Switzerland, Cat. No. 15140-122), L-Glutamine (Gibco Invitrogen, Basel, Switzerland, Cat. No. 25030), Puromycin (Sigma Aldrich, Buchs, Switzerland, Cat. No. P9620), DMSO (MERCK, Dietikon, Switzerland, Cat. No. 8.02912.2500), H2O, MilliQ-H2O unless otherwise stated (MILLIPORE QGARDOOR1, Millipore, Zug, Switzerland), Bovine serum albumine (BSA; Sigma Aldrich, Buchs, Switzerland Cat. No. A8412), SureFire p-Akt ½ (Ser473) Assay Kit (PerkinElmer, Schwerzenbach, Switzerland, Cat. No. TGRAS50K).The p-Akt(5473) SureFire assay measures the phosphorylation of endogenous cellular Akt ½ at Ser473 in cell lysates. Using Rat-1 cells stably expressing myr-HA-tagged versions of the human PI3Kdelta, PI3Kalpha, or PI3Kbeta p110 catalytic subunit isoforms, the assay was developed as a two-plate protocol in a 384-well format. For compound testing, the cells were seeded at a density of 4000 (Rat-1_PI3Kdelta), 7500 (Rat-1_PI3Kalpha).” left out.

Each structure is given as a SMILES string.

As for `Nc1ncc(-c2cc(N3CCOCC3)nc(N3CCOCC3)n2)c(C(F)(F)F)n1`, the half-inhibitory concentration (IC50) in experiment [1] is 0.156 µM; in experiment [2], 0.139 µM.

`Nc1ncc(-c2cc(N3CCOC(c4ccccc4)C3)nc(N3CCOCC3)n2)c(C(F)(F)F)n1` (stereo unspecified): the IC50 in experiment [1] is above 10 µM.

On to `Nc1ncc(-c2cc(N3CCC(=O)CC3)nc(N3CCOCC3)n2)c(C(F)(F)F)n1`, for which the results for the IC50 in experiment [1] and in experiment [2] were 5.31 µM and 6.54 µM, respectively.

In the case of `Nc1ncc(-c2cc(N3C(=O)O[C@@H](c4ccc(OCCO)cc4)[C@@H]3CO)nc(N3CCOCC3)n2)c(C(F)(F)F)n1`, the half-inhibitory concentration (IC50) in experiment [1] and in experiment [2] was below 0.003 µM in each case.

In the case of `Nc1ncc(-c2cc(N3CCCCC3=O)nc(N3CCOCC3)n2)c(C(F)(F)F)n1`, the IC50 in experiment [1] came to 1.54 µM; in experiment [2] it was 1.04 µM.

With `Nc1ncc(-c2cc(N3CCN(c4ccccc4)C3=O)nc(N3CCOCC3)n2)c(C(F)(F)F)n1`, the 50% inhibitory concentration (IC50) was 1.58 µM in experiment [1] and 1.47 µM in experiment [2].

As usually defined, the IC50 is the concentration that inhibits the measured activity by half.
